Reference: article PMC10682101, “In vitro pharmacological characterization of standard and new lysophosphatidic acid receptor antagonists using dynamic mass redistribution assay” (Frontiers in Pharmacology, 2023)
Read-outs that look alike come from different tables or passages of the source.

Tests used:
[1] = system: CHO wild-type cells; experiment: DMR assay in CHO wild-type cells (control); assay type: cell-based; settings: for DMR response: CHO cells, compound 10 μM, mean ± s.e.m.
Procedure: Confluent cells were sub-cultured using trypsin/EDTA and used for experiments. Cells were seeded at a density of 20,000 cells/well in 30 µL into fibronectin-coated EnspireTM-LC 384-well plates and cultured for 20 h to form a confluent monolayer. On the day of the experiment, the cells were manually washed twice and maintained with assay buffer (HBSS with 20 mM HEPES, 0.01% BSA) for 90 min before DMR experiments. DMR was monitored in real time with a temporal resolution of 44 s throughout the assay. Experiments were performed at 37°C using an EnSight Multimode Plate Reader (PerkinElmer). The agonism protocol was as follows: before addition of the ligand, the DMR signal was measured for 5 min, and the average of the signals recorded during this period was set as the baseline (pm = 0). Compounds are added manually in a volume of 10 µL, and the triggered DMR signals were recorded for 60 min. The antagonism protocol was as follows: antagonists were added manually 25 min before reading the 5 min baseline. […] Responses were described in the form of picometer shift over time (seconds) following the subtraction of values from vehicle-treated wells. Maximum picometer (pm) modification (peak) and area under the curve (AUC) were used to determine the agonist response.

[2] = molecular target: LPA2 receptor; set-up: method as in Schiemann et al., 2012; settings: inhibition of LPA effects on Ca2+ mobilization, cells expressing LPA2; ref Schiemann et al., 2012; cited from earlier work
[3] = molecular target: T1, human LPA1 receptor (Homo sapiens, UniProt Q92633); experiment: Calcium mobilization assay in CHOLPA1 cells; settings: for Effect per se: 1 µM, data not shown; for Shift of the concentration–response curve to LPA: antagonism protocol (compound 35, compound 20 at 1 µM)
[4] = molecular target: T2, human LPA2 receptor (Homo sapiens, UniProt Q9HBW0); experiment: Calcium mobilization assay in CHOLPA2 cells; settings: for Effect per se / Shift of the concentration–response curve to LPA: 1 µM; for Effect per se: data not shown; for Agonism Emax / Agonism pEC50: #inactive at 1 μM; for Shift of the concentration–response curve to LPA: antagonism protocol
[5] = molecular target: T1, human LPA1 receptor; experiment: Dynamic mass redistribution (DMR) assay in CHOLPA1 cells; settings: for Shift of the concentration–response curve to LPA: antagonism protocol; for Agonism Emax: negative DMR signal; for DMR response: CHOLPA1 cells, compound 10 μM, mean ± s.e.m.
Procedure: All data were analyzed using GraphPad Prism 9.4 (La Jolla, CA, United States). Concentration–response curves were fitted using the four-parameter log-logistic equation. Data are expressed in the form mean ± s.e.m. across n experiments performed in duplicate. Agonist potency is expressed in the form pEC50, which is the negative logarithm to base 10 of the agonist molar concentration that produces 50% of the maximal possible effect of that agonist. […] In practice, equiactive concentrations of the agonist in the absence ([A]) and presence ([A’]) of a non-competitive antagonist ([B]) were compared in a double reciprocal plot describing a straight line, and pKB was derived from the equation: pKB = log[(slope—1)/[B]]. […] Maximal effect data were analyzed using the Student’s t-test or a one-way ANOVA followed by Dunnett’s post-hoc test.

[6] = molecular target: T2, human LPA2 receptor; experiment: Dynamic mass redistribution (DMR) assay in CHOLPA2 cells; settings: for Shift of the concentration–response curve to LPA: antagonism protocol, 1 µM; for DMR response: CHOLPA2 cells, compound 10 μM, mean ± s.e.m.
Procedure: Confluent cells were sub-cultured using trypsin/EDTA and used for experiments. Cells were seeded at a density of 20,000 cells/well in 30 µL into fibronectin-coated EnspireTM-LC 384-well plates and cultured for 20 h to form a confluent monolayer. On the day of the experiment, the cells were manually washed twice and maintained with assay buffer (HBSS with 20 mM HEPES, 0.01% BSA) for 90 min before DMR experiments. DMR was monitored in real time with a temporal resolution of 44 s throughout the assay. Experiments were performed at 37°C using an EnSight Multimode Plate Reader (PerkinElmer). The agonism protocol was as follows: before addition of the ligand, the DMR signal was measured for 5 min, and the average of the signals recorded during this period was set as the baseline (pm = 0). Compounds are added manually in a volume of 10 µL, and the triggered DMR signals were recorded for 60 min. […] Responses were described in the form of picometer shift over time (seconds) following the subtraction of values from vehicle-treated wells. Maximum picometer (pm) modification (peak) and area under the curve (AUC) were used to determine the agonist response.
All data were analyzed using GraphPad Prism 9.4 (La Jolla, CA, United States). Concentration–response curves were fitted using the four-parameter log-logistic equation. Data are expressed in the form mean ± s.e.m. across n experiments performed in duplicate. […] In practice, equiactive concentrations of the agonist in the absence ([A]) and presence ([A’]) of a non-competitive antagonist ([B]) were compared in a double reciprocal plot describing a straight line, and pKB was derived from the equation: pKB = log[(slope—1)/[B]]. […] Maximal effect data were analyzed using the Student’s t-test or a one-way ANOVA followed by Dunnett’s post-hoc test.

[7] = molecular target: LPA1/3; set-up: method as in Ohta et al., 2003; settings: LPA1/3 antagonist; ref Ohta et al., 2003; read-out: Ki estimated from binding experiments; cited from earlier work
[8] = system: LPA1/3; set-up: method as in Ohta et al., 2003; settings: ref Ohta et al., 2003; cited from earlier work
[9] = system: LPA1 receptor; set-up: method as in Ohta et al., 2003; settings: GTPγS binding assay; ref Ohta et al., 2003; cited from earlier work
[10] = system: LPA1 receptor; set-up: method as in Shimizu and Nakayama, 2017; settings: cAMP assay; ref Shimizu and Nakayama, 2017; cited from earlier work
[11] = system: LPA1 receptor; set-up: method as in Ohta et al., 2003; settings: inositol phosphate test; ref Ohta et al., 2003; cited from earlier work
[12] = CHOLPA1, calcium mobilization, #inactive at 1 μM
[13] = CHOLPA1, DMR, peak, up to 10 µM (compound 35 up to 1 µM), °inactive at 10 μM
[14] = CHOLPA2, DMR, negative DMR signal, peak, up to 10 µM (compound 35 up to 1 µM), °inactive at 10 μM
[15] = CHOLPA1, calcium mobilization, *inactive at 0.1 µM

T2 sequence (Q9HBW0 whole entry): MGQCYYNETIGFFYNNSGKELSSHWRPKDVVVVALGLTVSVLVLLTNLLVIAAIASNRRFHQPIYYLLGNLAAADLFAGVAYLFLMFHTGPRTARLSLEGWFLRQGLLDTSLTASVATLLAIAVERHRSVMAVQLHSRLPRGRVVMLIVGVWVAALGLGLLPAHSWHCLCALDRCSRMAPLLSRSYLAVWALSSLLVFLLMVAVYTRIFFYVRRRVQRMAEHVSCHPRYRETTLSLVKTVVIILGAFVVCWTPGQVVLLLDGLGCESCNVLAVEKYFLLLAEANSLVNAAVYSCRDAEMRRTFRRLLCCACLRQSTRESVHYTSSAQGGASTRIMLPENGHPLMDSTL
T1 sequence (Q92633 whole entry): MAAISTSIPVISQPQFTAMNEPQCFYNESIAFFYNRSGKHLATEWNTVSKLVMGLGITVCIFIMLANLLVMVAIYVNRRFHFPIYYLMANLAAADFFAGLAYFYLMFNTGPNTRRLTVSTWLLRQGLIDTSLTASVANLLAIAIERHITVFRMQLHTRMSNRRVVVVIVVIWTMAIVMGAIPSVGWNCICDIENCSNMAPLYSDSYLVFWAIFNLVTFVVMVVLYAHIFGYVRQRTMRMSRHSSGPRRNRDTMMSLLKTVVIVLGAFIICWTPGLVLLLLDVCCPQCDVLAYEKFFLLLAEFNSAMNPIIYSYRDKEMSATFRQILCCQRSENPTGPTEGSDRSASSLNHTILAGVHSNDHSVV

Row | Effect per se ([3]; CHOLPA1, calcium mobilization) | Effect per se ([4]; CHOLPA2, calcium mobilization) | Agonism Emax ([4]; CHOLPA2, calcium mobilization) | Agonism pEC50 ([4]; CHOLPA2, calcium mobilization) | Agonism Emax [5, 13] | DMR response [5] [pm] | Agonism Emax [6, 14] | DMR response [6] [pm] | Structure (SMILES) | DMR response [1] [pm] | Shift of the concentration–response curve to LPA ([3]; CHOLPA1, calcium mobilization) | Shift of the concentration–response curve to LPA ([4]; CHOLPA2, calcium mobilization) | Shift of the concentration–response curve to LPA ([5]; CHOLPA1, DMR, 1 µM) | Shift of the concentration–response curve to LPA ([6]; CHOLPA2, DMR) | further results
1 | did not produce any effect per se | did not produce any effect per se | Inactive^# | Inactive^# | Inactive° | −31 ± 17 | −94 ± 6 pm | −119 ± 25 | O=C1C[C@@](O)(C(F)(F)F)c2c(-c3cccc(F)c3)n[nH]c2N1 [Compound 20] | −26 ± 8 | did not shift the concentration–response curve to LPA to the right | shifted the concentration–response curve to LPA to the right | did not shift the concentration–response curve to LPA to the right | shifted the concentration–response curve to LPA to the right | DMR effect per se ([1]; CHO wild-type cells, 10 µM): failed to evoke effects per se; pIC50 [2]: > 6; Kb ([3]; Antagonism pKB/pA2, CHOLPA1, calcium mobilization, LPA curve in absence and presence of 1 µM compound): > 1000 nM; Agonism Emax [3, 12]: Inactive^#; Agonism pEC50 [3, 12]: Inactive^#; Kb [4]: 56.2 nM; Effect on LPA maximal effect ([4]; CHOLPA2, calcium mobilization, tested as antagonist): induced a reduction in LPA maximal effects; Agonism pEC50 ([5]; CHOLPA1, DMR, negative DMR signal (inverse agonism), peak, up to 10 µM (compound 35 up to 1 µM), °inactive at 10 μM): Inactive°; DMR effect per se ([5]; CHOLPA1, DMR, up to highest concentration tested (10 μM; compound 35 1 µM)): inactive up to 10 μM; EC50 [6]: 148 nM; Agonism Emax ([6]; CHOLPA2, DMR, negative DMR signal, peak, up to 10 µM (compound 35 up to 1 µM), °inactive at 10 μM, listed as Merck compound 20): −94 pm; Time of maximum peak modification of the DMR response after administration ([6]; CHOLPA2, DMR, slow onset): ~60 min
2 | did not produce any effect per se | did not produce any effect per se | Inactive^# | Inactive^# | −110 ± 17 pm | −101 ± 7 | Crc incomplete | −95 ± 4 | Cc1noc(-c2ccc(CSCCC(=O)O)cc2)c1NC(=O)OC(C)c1ccccc1Cl (stereo not shown) [KI 16425] | −42 ± 7 | shifted the concentration–response curve to LPA to the right | shifted the concentration–response curve to LPA to the right | shifted the concentration–response curve to LPA to the right | shifted the concentration–response curve to LPA to the right | Ki [7]: 670 nM; Selectivity for LPA1/3 vs. LPA2 [8]: 20 fold; Inverse agonism activity [9]: slight degree of inverse agonism activity; Inverse agonism activity [10]: slight degree of inverse agonism activity; Inverse agonism activity [11]: this has not been replicated; Kb ([3]; Antagonism pKB (pKB/pA2), CHOLPA1, calcium mobilization, Gaddum method, LPA curve in absence and presence of 0.1 µM antagonist): 3.09 nM; Agonism Emax [3, 15]: Inactive*; Agonism pEC50 [3, 15]: Inactive*; Antagonism pKB (pKB/pA2) ([3]; CHOLPA1, calcium mobilization, Gaddum method, LPA curve in absence and presence of 0.1 µM antagonist): ~8.5; Effect on LPA maximal effect ([3]; CHOLPA1, calcium mobilization, tested as antagonist): reduced the LPA maximal effect in a concentration-dependent manner; EC50 ([5]; Agonism pEC50, CHOLPA1, DMR, negative DMR signal (inverse agonism), peak, up to 10 µM (compound 35 up to 1 µM), °inactive at 10 μM): 67.6 nM; Effect on LPA maximal effect ([5]; CHOLPA1, DMR, tested as antagonist, 1 µM): without changing the maximal effect; DMR effect per se ([6]; CHOLPA2, DMR, concentration–response up to highest concentration tested): inactive per se, or slightly active only at the higher concentration tested; Agonism pEC50 [6, 14]: Crc incomplete
